Like-named read-outs stand apart in the source and are kept apart here. Blank lines part the entries; values can stand above or below the compound they belong to.
Key:
[1] = Dissolution test of Q-markers in YZTs, paddle method, and fitting of dissolution profiles; format: physicochemical; conditions: for Best-fitted dissolution model, Functions: YZTs, 75 rpm
Description: The dissolution of five Q-markers in YZTs was evaluated using the paddle method in accordance with the Chinese Pharmacopoeia. […] The dissolution tests were conducted at a temperature of 37 ± 0.5 °C and a paddle speed of 75 rpm. Add 6 tablets to each dissolving cup, accompanied by 900 mL of dissolving solution, in 6 parallel aliquots, and samples of 3 mL were collected at 15, 30, 45, 60, 90, 120, 180, 240, and 360 min, respectively. Taking into account the gastric emptying time, the end time of dissolution measurement was 180 min when taking 0.1 M of HCl as dissolution medium. The dissolution medium was replenished after each sampling. The samples were filtered through 0.22 μm membrane and analyzed using the HPLC method described in Section 3.2. The chromatographic results were processed to calculate the concentration of each component at different time points, and the dissolution results were calculated using Equation (3) as follows:(3) D=(CnV1+V2∑i=1n−1Cn−1)×100%/M
Cn is the drug concentration at time point n; V1 is the volume of dissolution medium in the dissolution cup; V2 is the volume of the sample removed at each time point; M is the total drug content.
The Phoenix WinNonlin IVIVC Toolkit provides Hill, Weibull, and Makoid Banakar functions to fit the average dissolution of each component in each dissolved medium. The best-fitting model was selected according to the highest correlation coefficient (R) and the smallest Akaike information criterion (AIC) value in the fitting results.
Hill:(4) Fdiss,vitro=Finf×t^b/MDT^b+t^b
Weibull:(5) Fdiss,vitro=Finf×(1−exp[−t−tlag/MDT]^b)
Makoid Banakar:(6) Fdiss,vitro=Fmax×(t/Tmax)^b×exp[b×(1−t/Tmax)] for t≤T_max (7) Fdiss,vitro=Fmax for t>Tmax where Fdiss,vitro is the fitting fraction dissolved at time t, Finf is the fraction dissolved at time infinity (fixed as 1), MDT is the average dissolution time (hours), Fmax is the maximum in vitro dissolution value, tlag is the lag time, Tmax is the time corresponding to the maximum in vitro dissolution value, and b is the shape parameters.

[2] = Caco-2 transport assay (Peff); conditions: human
[3] = dog, in vivo
Description: The Phoenix WinNonlin IVIVC tool was utilized to evaluate the relationship between in vivo drug dissolution rate and blood drug concentration, which utilizes the Unit Impulse Response (UIR) function for this purpose. By using intravenous administration as the input for the unit impulse response, the influence of drug absorption can be eliminated. The obtained UIR function will be utilized for the deconvolution of pharmacokinetic data to obtain the curve of cumulative drug absorption over time [50]. (8) Y(t)=A×exp[Alpha×(t×Ka−tlag)] in which Y(t) is unit impulse response, A is the coefficient value, Alpha is the exponential value, Ka is the absorption rate constant, tlag is the lag time.

[4] = dog, in vivo; remark: listed apart in the source
Description: In order to further apply the identified in vivo correlated dissolution conditions to different batches of YZTs, another brand of YZTs was selected for external validation of the dissolution conditions and IVIVC model results. The dissolution data of different brands in the identified media were input into the established IVIVC model to obtain the predicted blood concentration–time curve and to compare the PE% between the predicted value and the actual value.

Compound: COc1cc2c(cc1OC)[C@H]1[C@@H](C)c3ccc(OC)c(OC)c3CN1CC2 [Corydaline, corydaline]
Best-fitted dissolution model, Functions ([1]; 0.1 M HCl): y(t) = 0.79 × (1 − exp[−(t/1.06)^2.00])
Best-fitted dissolution model, Functions ([1]; Acetate buffer): y(t) = 0.71 × (1 − exp[−(t/1.23)^2.04])
Best-fitted dissolution model, Functions ([1]; FaSSIF-V2): y(t) = 0.15 × (1 − exp[−(t/3.14)^1.77])
Best-fitted dissolution model, Functions ([1]; Phosphate buffer): y(t) = 0.25 × (1 − exp[−(t/1.94)^2.82])
Papp at 120 min [2]: 3.94 ×10⁻⁶ cm/s

Compound: COc1ccc2c(c1OC)CN(C)CCc1cc3c(cc1C(=O)C2)OCO3 [α-allocryptopine]
Best-fitted dissolution model, Functions ([1]; Acetate buffer): y(t) = 0.86 × (1 − exp[−(t/1.26)^1.97])
Best-fitted dissolution model, Functions ([1]; Phosphate buffer): y(t) = 0.60 × (1 − exp[−(t/1.29)^1.78])
released within 6 h ([1]; from YZTs, phosphate buffer and artificial intestinal fluid, paddle 75 rpm): less than 60%
Papp at 120 min [2]: 13.4 ×10⁻⁶ cm/s

Compound: protopine
Best-fitted dissolution model, Functions ([1]; 0.1 M HCl): y(t) = 0.70 × (1 − exp[−(t/1.10)^2.06])
Best-fitted dissolution model, Functions ([1]; FaSSGF): y(t) = 0.82 × (1 − exp[−t^1.01])
Best-fitted dissolution model, Functions ([1]; Phosphate buffer): y(t) = 0.62 × (1 − exp[−(t/1.50)^1.63])
UIR parameter A1, Estimate [3]: 0 ng/mL
UIR parameter Ka, Estimate [3]: 1.36 h⁻¹
UIR parameter Tlag, Estimate [3]: 0.44 h
UIR parameter alpha1, Estimate [3]: 1.35 h⁻¹
Observed AUC [4]: 205.15
Observed Cmax [4]: 1.15 ng/mL
Predicted AUC [4]: 218.10
Predicted Cmax [4]: 1.26 ng/mL
In Vitro Caco-2 Cell Permeability (Peff) (Caco-2 cells): 7.49 ± 0.0803 ×10⁻⁶ cm/s
Solubility, 0.1 M HCl (pH 1.2): 4700 ± 384 µg/mL
Solubility, Acetate Buffer (pH 4.5): 5403 ± 378 µg/mL
Solubility, Phosphate Buffer (pH 6.8): 535 ± 17.2 µg/mL

Results, then the compound that gave them:

released ([1]; from YZTs, all other dissolution media than simulated gastric fluid and 0.1 M HCl, paddle 75 rpm): less than 40%
Papp at 120 min [2]: 8.95 ×10⁻⁶ cm/s
Compound: COc1c2ccoc2c(OC[C@@H](O)C(C)(C)O)c2oc(=O)ccc12 [Byakangelicin, byakangelicin]

Best-fitted dissolution model, Functions ([1]; FaSSIF-V2): y(t) = 0.38 × (1 − exp[−(t/3.48)^1.91])
Best-fitted dissolution model, Functions ([1]; Phosphate buffer): y(t) = 0.30 × (1 − exp[−(t/2.29)^2.34])
UIR parameter A1, Estimate ([3]; beagle): 0.04 ng/mL
UIR parameter Ka, Estimate ([3]; beagle): 1.28 h⁻¹
UIR parameter Tlag, Estimate ([3]; beagle): 0.40 h
UIR parameter alpha1, Estimate ([3]; beagle): 1.30 h⁻¹
Papp at 120 min [2]: 3.76 ×10⁻⁶ cm/s
Compound: COc1cc2c(cc1OC)[C@@H]1Cc3ccc(OC)c(OC)c3CN1CC2 [Tetrahydropalmatine, tetrahydropalmatine]

Source: publication PMC11359531, “Establishment of Dissolution Test Method for Multi-Components in Traditional Chinese Medicine Preparations Based on In Vitro–In Vivo Correlation” (Pharmaceuticals, 2024)
